The source of these data is article PMC6421105 (Bioorganic & medicinal chemistry, 2019).

The test system of one series is T. cruzi (amastigotes). Kind of series: T. cruzi amastigote assay. The settings on record: for IC50: Trypanosoma cruzi, Vero, 72 h, read-out: T. cruzi (amastigotes) ED50; for Antiparasitic activity against intracellular T. cruzi (in words): amastigotes. Type of series: cell-based, Trypanosoma cruzi.
In another series the test system is intracellular T. cruzi. The conditions noted are these: racemic mixture; cited from earlier work.
Another series deals with Vero cells. Format: cell-based. The settings on record: for Cytotoxicity at 15 µM / Cytotoxicity at 20 µM: 72 h; for Cytotoxicity ED50: treatment for 72 h.
The subject of series [1] is mitochondrial and glycosomal TcSQS (wild type). The conditions noted are these: membrane protein; cited from earlier work.
A further series has as its system truncated TcSQS. The settings on record: soluble enzyme cloned and expressed in Escherichia coli; cited from earlier work.

On to `N#C[Se]CC1Cc2ccc(Oc3ccccc3)cc2O1` (racemic) [(±)-8], for which the IC50 in the series on T. cruzi (amastigotes) stood at 0.0939 ± 0.025 µM. Moreover, the “ED50 against intracellular T. cruzi” value in the series with intracellular T. cruzi is 0.083 µM.
For the compound `N#C[Se]CCOc1ccc([N+](=O)[O-])cc1` [Compound 22, 4-Nitrophenoxyethyl selenocyanate], the IC50 in the series on T. cruzi (amastigotes) was found to be 3.87 ± 1.3 µM. Also, in the series with Vero cells, the “Cytotoxicity at 15 µM” value is recorded as “^**cytotoxic at 20 µM, 15 µM” and the “Cytotoxicity at 20 µM” value is “^**cytotoxic at 20 µM, 15 µM”.
As to `FC(F)(F)SCCOc1ccc(Oc2ccccc2)cc1` [Compound 9, (2-(4-Phenoxyphenoxy)ethyl)(trifluoromethyl)sulfane], in the series on T. cruzi (amastigotes), the IC50 is > 10 µM.
For `N#C[Se]CCOc1ccccc1Oc1ccccc1` [Compound 43, 2-Phenoxyphenoxyethyl selenocyanate], in the series with T. cruzi (amastigotes), the IC50 was > 10 µM and the “Antiparasitic activity against intracellular T. cruzi (in words)” value is “free of anti-T. cruzi activity”.
The matching figures for `N#CCCOc1ccc(Oc2ccccc2)cc1` [Compound 13, 4-Phenoxyphenoxyethyl cyanide]: > 10 µM and “inactive”.
`O=C(Cn1ccnc1[N+](=O)[O-])NCc1ccccc1` [benznidazole, reference compound]: the IC50 with T. cruzi (amastigotes) worked out at 2.48 ± 0.45 µM.
For the compound `COc1ccc(OCC[Se]C#N)cc1` [Compound 20, 4-Methoxyphenoxyethyl selenocyanate], in the series with T. cruzi (amastigotes), the IC50 is > 10 µM. Moreover, the “T. cruzi (amastigotes) inhibition at 6 µM” value in the series with T. cruzi (amastigotes) (at 6 µM) is listed as “no inhibition”. Also, in the series with Vero cells, the “Cytotoxicity at 15 µM” value is listed as “^**cytotoxic at 20 µM, 15 µM” and the “Cytotoxicity at 20 µM” value is listed as “^**cytotoxic at 20 µM, 15 µM”.
Consider `N#C[Se]CCOc1ccccc1` [Compound 21, Phenoxyethyl selenocyanate], for which the IC50 with T. cruzi (amastigotes) is > 10 µM. The “Cytotoxicity at 20 µM” value in the series with Vero cells is recorded as “^**cytotoxic at 20 µM”.
On to `N#CCCCOc1ccc(Oc2ccccc2)cc1` [Compound 14, 3-(4-Phenoxyphenoxy)propyl cyanide], for which, in the series on T. cruzi (amastigotes), the IC50 is > 10 µM and the “Antiparasitic activity against intracellular T. cruzi (in words)” value was “inactive”.
The matching figures for `N#CSCCOc1ccccc1Oc1ccccc1` [Compound 44, 2-Phenoxyphenoxyethyl thiocyanate]: > 10 µM and “free of anti-T. cruzi activity”.
Turning to `FC(F)(F)[Se]CCOc1cccc(Oc2ccccc2)c1` [Compound 12, (2-(3-Phenoxyphenoxy)ethyl)(trifluoromethyl)selane], the IC50 in the series with T. cruzi (amastigotes) was > 1 µM.
“(2-(4-Phenoxyphenoxy)ethyl)(trifluoromethyl)selane [Compound 11]”: the “Cytotoxicity ED50” value with Vero cells is > 20 µM.
For the compound “(2-(3-Phenoxyphenoxy)ethyl)(trifluoromethyl)sulfane [Compound 10]”, in the series with T. cruzi (amastigotes) (at 1.0 µM), the “T. cruzi (amastigotes) % inhibition at 1.0 µM” value turned out to be 6.7%. Also, in the series with Vero cells, the “Cytotoxicity ED50” value was > 20 µM.
Consider `N#CSCCOc1ccc(Oc2ccccc2)cc1` [WC-9, 4-Phenoxyphenoxyethyl Thiocyanate], for which the “Inhibition of TcSQS enzymatic activity (in words)” value in series [1] was “non-competitive nanomolar inhibitor”. In addition, the “Inhibition of truncated TcSQS (in words)” value in the series on truncated TcSQS is “inactive”.
